Experimental data as given in doi:10.1101/2025.08.13.670122v1 (bioRxiv, 2025).

Target: T1, AT1R (Homo sapiens, UniProt P30556)
T1 sequence (P30556 1-359): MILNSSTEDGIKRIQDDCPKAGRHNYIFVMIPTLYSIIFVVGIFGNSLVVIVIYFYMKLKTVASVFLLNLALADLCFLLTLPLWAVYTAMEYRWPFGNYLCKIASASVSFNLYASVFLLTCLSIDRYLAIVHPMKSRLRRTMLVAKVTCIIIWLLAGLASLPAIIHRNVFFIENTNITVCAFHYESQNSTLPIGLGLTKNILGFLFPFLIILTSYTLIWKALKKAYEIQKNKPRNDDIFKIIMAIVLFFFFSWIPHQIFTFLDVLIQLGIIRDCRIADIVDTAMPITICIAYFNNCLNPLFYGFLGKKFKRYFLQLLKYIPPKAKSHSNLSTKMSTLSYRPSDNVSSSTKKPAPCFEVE
Assay: Gαq activation BRET (GABY sensor) in HEK293 cells expressing AT1R
Type: cell-based
Set-up: expressed in transfected cells; host or cells: HEK293 cells, transient PEI transfection
Conditions: for Emax Gαq (% AngII): HEK293/AT1R, GABY BRET sensor, response of the ligand at 10 μM, normalised to AngII; for EC50: HEK293 cells transiently expressing human AT1R, Gαq-RlucII/Gβ1/Gγ1-GFP10 (GABY) BRET sensor, BRET read 10 min after ligand, mean ± SEM of at least three to five independent experiments
Text: We utilized a clonal cell line HEK293, referred to hereafter as HEK293 cells, which has been previously described.[7],[8] As a gracious gift from A. Inoue (Tohoku University, Sendai, Miyagi, Japan), CRISPR Gαq/11 and Gα12/13 knockout cell lines (ΔGq/11 and ΔG12/13, respectively), were derived as previously explained.[48] In brief, a CRISPR-Cas9 system was used to target either GNAQ and GNA11 or GNA12 and GNA13 genes in HEK293T cells simultaneously to generate the Gαq/11 and Gα12/13 knockout cell lines. For the production of adenovirus, we utilized HEK293A cells. All cells were grown in DMEM supplemented with 10% FBS and Penicillin-Streptomycin-L-Glutamine (10000 IU penicillin, 10000 µg/mL Streptomycin, 200 mM L-Glutamine) at 37°C in T175 flasks under a 5% CO2 humidified chamber. Periodic testing was carried out for mycoplasma contamination (ABM™, Mycoplasma PCR Detection kit). For all biosensors used, cells underwent transfection with the PEI reagent, employing a PEI:DNA ratio of 3:1. For the Gαq biosensor, HEK293 cells were transfected with the plasmids coding for Gαq-RLucII (120 ng), Gβ1 (3000 ng), Gγ1-GFP10 (3000 ng), human AT1 (3000 ng) and Salmon sperm DNA (SSD) (880 ng). For the β-arrestin2 recruitment assay, HEK293 cells were transfected with the plasmids coding for 120 ng β-arrestin-2-RLucII, 3000 ng AT1, 3000 ng rGFP-CAAX, and 3880 ng SSD. For the measurement of PKC, HEK293 cells were transfected with 3000 ng AT1, 600 ng PKC-c1b, and 6400 ng SSD. […] 100 µL of the cell/DNA mixture was added to white 96-well plates and incubated at 37°C at 5% CO2 for 48 h. For the Rho assay, ΔG12/13 cells were seeded at a density of 9,000 cells per well in poly-ornithine-coated white 96-well plates and transfected the following day. In brief, 1 μg of total DNA in 100 μL of PBS was mixed with 100 μL of PBS containing 3 μL of 1 mg/mL PEI. For Rho signaling, 150 ng of AT1R DNA with 25 ng of PKN-RBD-RlucII [8], and 100 ng of rGFP-CAAX were used. Empty pcDNA was used to reach 1 µg of the total DNA amount in 100 μL of PBS. The DNA was then mixed with 100 μL of PBS containing 3 μL of 1 mg/mL PEI. After a 20-min incubation, the DNA/PEI complexes were dispensed into cells in 96-well plates (15 µL/well), and the experiment was carried out 48 h post-transfection.
On the day of the experiment, each well was washed with 80 µL of Tyrode’s buffer (140 mM NaCl, 2.7 mM KCl, 1 mM CaCl2, 12 mM NaHCO3, 5.6 mM D-glucose, 0.5 mM MgCl2, 0.37 mM NaH2PO4, 25 mM Hepes (pH 7.4)). This was followed by incubation for 1 h in Tyrode’s buffer at room temperature. For the Gαq, β-arrestin-2, and PKC biosensors used in HEK293 cells, coelenterazine 400A (at a final concentration of 5 μM) was added 10 min before stimulation. Cells were then stimulated with increasing doses of the indicated ligand, and BRET signals were measured using a Tristar2 (Berthold) microplate reader 10 min later. For the PKC and Rho biosensors in VSMCs, and the Rho biosensor in ΔG12/13 cells, cells were similarly stimulated with ligands for 1 min, 1 min 30 s, and 3 min, respectively, before BRET measurement. […] BRET signals were then measured using a Synergy2 (BioTek) microplate reader. The applied filter set was 410/80 nm and 515/30 nm, designed to detect the light emissions of RlucII (Renilla luciferase) (donor) and rGFP (acceptor), respectively.

Emax Gαq (% AngII)	EC50 (SEM) [nM]	EC50 [nM]	Compound
113	1.1 ± 0.4		CC[C@H](C)[C@H](NC(=O)[C@H](Cc1ccc(O)cc1)NC(=O)[C@@H](NC(=O)[C@H](CCCNC(=N)N)NC(=O)[C@@H](N)CC(=O)O)C(C)C)C(=O)N[C@@H](Cc1c[nH]cn1)C(=O)N1CCC[C@H]1C(=O)N[C@@H](Cc1ccc(OC)cc1)C(=O)O [compound 11]
11		> 10000	CC[C@H](C)[C@H](NC(=O)[C@H](Cc1ccc(O)cc1)NC(=O)[C@@H](NC(=O)[C@H](CCCNC(=N)N)NC(=O)[C@@H](N)CC(=O)O)C(C)C)C(=O)N[C@@H](Cc1c[nH]cn1)C(=O)N1CCC[C@H]1C(=O)N[C@@H](Cc1ccc(OCc2ccccc2)cc1)C(=O)O [compound 12]
